Assay results from EP1534672B1, “RETINOL DERIVATIVES, THEIR USE IN THE TREATMENT OF CANCER AND FOR POTENTIATING THE EFFICACY OF OTHER CYTOTOXIC AGENTS” (priority 2002, dated 2004).

System: Human Breast Adenocarcinoma Cell Line MDA-MB-231
Test: Drug cytotoxicity testing (viable cell count, trypan blue exclusion, cell growth inhibition)
Type: cell-based
Details: Homo sapiens, MDA-MB-231, 48 h, compound alone, final concentration 10^-7 mol/L; working solutions in MEM with 5% FBS; two days; read-out: cell growth inhibition
Description: MDA-MB-231 cells were propagated in MEM culture medium with 2 mM L-glutamine, 10% heat-inactivated fetal bovine serum (FBS) and antibiotics. DU 145 cells were cultured in MEM culture medium containing 2 mM L-glutamine, 1 mM sodium pyruvate, 10% FBS and antibiotics. SKOV-3 cells were cultured in McCoy's 5A culture medium, supplemented with 1,5 mM L-glutamine, 10% FBS and antibiotics. A549 cells were cultured in Ham's F-12 culture medium with 1 mM L-glutamine, 10% FBS and antibiotics. All media and supplements were purchased from Sigma-Aldrich (St.Louis, MO, USA). Cell propagation of all lines was carried out in Falcon™ 25 cm^2 cultivation flasks (Becton Dickinson Labware).
Drug cytotoxicity testing was carried out with using Falcon™ 96-well cultivation plates for adherent cells (Becton Dickinson Labware). These plates were seeded by cells either at 12 × 10^3 MDA-MB-231 cells/well, or at 12 × 10^3 DU 145 cells/well, or at 14 × 10^3 SKOV-3 cells/well, or at 10 × 10^3 A549 cells/well in a volume of 200 µL/well.
The cell cultures in cultivation plates were allowed to adhere for 24 hour of incubation. On day 1 after cell seeding, 2 µL solutions of the drugs to be tested in medium with 5% FBS was added to the cultures. In the control cultures, 2 µL of medium with 5% FBS was added as solvent control. The cells were incubated for 2 consecutive days. At the end of the incubation period adherent cells were detached by trypsinization and the number of viable cells was counted using trypan blue exclusion test and a hemocytometer. All data were derived from an average of three determinations each in six replicates. The results were expressed as mean cell number ± SE and the differences between control and test series evaluated by means of Student's t-test. The drug cytotoxicity was evaluated based on the extent of cell growth inhibition. The cell growth inhibition of the tested drugs was calculated as follows: Cell growth inhibition,% = (Control-TestSeries)/(Control) × 100 [formula]
In the case of comparative evaluation of cytotoxicity of the inventive compounds themselves and the formulation related to consecutive dilutions of their initial solutions before adding to the cultures, 2 µL solutions of the drugs to be tested in medium with 5% FBS, in normal saline and in saline with 2,3 mM CaCl2 were added to the cultures. In control cultures, 2 µL of medium with 5% FBS, normal saline and saline with 2,3 mM CaCl2 were added as solvent controls (negative controls). […] Therefore an average of negative controls was calculated. […] Therefore an average of positive controls was calculated (for each antibiotic).
With `CC1=C(/C=C/C(C)=C/C=C/C(C)=C/C(=O)N[C@@H](CS(=O)(=O)O)C(=O)N(C)C)C(C)(C)CCC1` [compound I-1h, N-(all-trans-retinoyl)-L-cysteic acid dimethylamide] the inhibition at 0.1 µM was 46.4%. With `COC(=O)[C@H](CCS(=O)(=O)O)NC(=O)/C=C(C)/C=C/C=C(C)/C=C/C1=C(C)CCCC1(C)C` [compound I-3a, N-(all-trans-retinoyl)-L-homocysteic acid methyl ester] the inhibition at 0.1 µM was 49%.

Same assay, conditions: Homo sapiens, MDA-MB-231, 48 h, compound alone, final concentration 10^-8 mol/L; working solutions in MEM with 5% FBS; two days; read-out: cell growth inhibition
With `CC1=C(/C=C/C(C)=C/C=C/C(C)=C/C(=O)N[C@@H](CS(=O)(=O)O)C(=O)N(C)C)C(C)(C)CCC1` [compound I-1h, N-(all-trans-retinoyl)-L-cysteic acid dimethylamide] the inhibition at 0.01 µM was 39.6%. `COC(=O)[C@H](CCS(=O)(=O)O)NC(=O)/C=C(C)/C=C/C=C(C)/C=C/C1=C(C)CCCC1(C)C` [compound I-3a, N-(all-trans-retinoyl)-L-homocysteic acid methyl ester] showed an inhibition at 0.01 µM of 38.2%.

Same assay, conditions: Homo sapiens, MDA-MB-231, 48 h, compound alone, final concentration 10^-9 mol/L; working solutions in MEM with 5% FBS; two days; read-out: cell growth inhibition
With `CC1=C(/C=C/C(C)=C/C=C/C(C)=C/C(=O)N[C@@H](CS(=O)(=O)O)C(=O)N(C)C)C(C)(C)CCC1` [compound I-1h, N-(all-trans-retinoyl)-L-cysteic acid dimethylamide] the inhibition at 0.001 µM was 32%. With `COC(=O)[C@H](CCS(=O)(=O)O)NC(=O)/C=C(C)/C=C/C=C(C)/C=C/C1=C(C)CCCC1(C)C` [compound I-3a, N-(all-trans-retinoyl)-L-homocysteic acid methyl ester] the inhibition at 0.001 µM was 29.2%.

Same assay, conditions: Homo sapiens, MDA-MB-231, compound alone 10^-7 mol/L, in A (saline with […] CaCl2); read-out: cell growth inhibition
Work on `CC1=C(/C=C/C(C)=C/C=C/C(C)=C/C(=O)N[C@@H](CS(=O)(=O)O)C(=O)N(C)C)C(C)(C)CCC1` [compound I-1h, N-(all-trans-retinoyl)-L-cysteic acid dimethylamide] yielded an inhibition at 0.1 µM of 41.8%.

Same assay, conditions: Homo sapiens, MDA-MB-231, compound alone 10^-7 mol/L, in B (normal saline); read-out: cell growth inhibition
Work on `CC1=C(/C=C/C(C)=C/C=C/C(C)=C/C(=O)N[C@@H](CS(=O)(=O)O)C(=O)N(C)C)C(C)(C)CCC1` [compound I-1h, N-(all-trans-retinoyl)-L-cysteic acid dimethylamide] yielded an inhibition at 0.1 µM of 26%.

Same assay, conditions: Homo sapiens, MDA-MB-231, compound alone 10^-7 mol/L; read-out: Cell growth inhibition in A compared to that in B was increased by
For `CC1=C(/C=C/C(C)=C/C=C/C(C)=C/C(=O)N[C@@H](CS(=O)(=O)O)C(=O)N(C)C)C(C)(C)CCC1` [compound I-1h, N-(all-trans-retinoyl)-L-cysteic acid dimethylamide], the inhibition at 0.1 µM was 21.3%.

Same assay, conditions: Homo sapiens, MDA-MB-231, compound alone 10^-8 mol/L, in A (saline with […] CaCl2); read-out: cell growth inhibition
Work on `CC1=C(/C=C/C(C)=C/C=C/C(C)=C/C(=O)N[C@@H](CS(=O)(=O)O)C(=O)N(C)C)C(C)(C)CCC1` [compound I-1h, N-(all-trans-retinoyl)-L-cysteic acid dimethylamide] yielded an inhibition at 0.01 µM of 34.2%.

Same assay, conditions: Homo sapiens, MDA-MB-231, compound alone 10^-8 mol/L, in B (normal saline); read-out: cell growth inhibition
`CC1=C(/C=C/C(C)=C/C=C/C(C)=C/C(=O)N[C@@H](CS(=O)(=O)O)C(=O)N(C)C)C(C)(C)CCC1` [compound I-1h, N-(all-trans-retinoyl)-L-cysteic acid dimethylamide] gave an inhibition at 0.01 µM of 17.4%.

Same assay, conditions: Homo sapiens, MDA-MB-231, compound alone 10^-8 mol/L; read-out: Cell growth inhibition in A compared to that in B was increased by
In the case of `CC1=C(/C=C/C(C)=C/C=C/C(C)=C/C(=O)N[C@@H](CS(=O)(=O)O)C(=O)N(C)C)C(C)(C)CCC1` [compound I-1h, N-(all-trans-retinoyl)-L-cysteic acid dimethylamide], the inhibition at 0.01 µM is reported as 20.4%.

Same assay, conditions: Homo sapiens, MDA-MB-231, compound alone 10^-9 mol/L, in A (saline with […] CaCl2); read-out: cell growth inhibition
`CC1=C(/C=C/C(C)=C/C=C/C(C)=C/C(=O)N[C@@H](CS(=O)(=O)O)C(=O)N(C)C)C(C)(C)CCC1` [compound I-1h, N-(all-trans-retinoyl)-L-cysteic acid dimethylamide] gave an inhibition at 0.001 µM of 26.7%.

Same assay, conditions: Homo sapiens, MDA-MB-231, compound alone 10^-9 mol/L, in B (normal saline); read-out: cell growth inhibition
With `CC1=C(/C=C/C(C)=C/C=C/C(C)=C/C(=O)N[C@@H](CS(=O)(=O)O)C(=O)N(C)C)C(C)(C)CCC1` [compound I-1h, N-(all-trans-retinoyl)-L-cysteic acid dimethylamide] the inhibition at 0.001 µM was 7%.

Same assay, conditions: Homo sapiens, MDA-MB-231, compound alone 10^-9 mol/L; read-out: Cell growth inhibition in A compared to that in B was increased by
`CC1=C(/C=C/C(C)=C/C=C/C(C)=C/C(=O)N[C@@H](CS(=O)(=O)O)C(=O)N(C)C)C(C)(C)CCC1` [compound I-1h, N-(all-trans-retinoyl)-L-cysteic acid dimethylamide] gave an inhibition at 0.001 µM of 21.1%.

Same assay, conditions: compound alone 10^-7 mol/L, in B (normal saline)
For `CC1=C(/C=C/C(C)=C/C=C/C(C)=C/C(=O)N[C@@H](CS(=O)(=O)O)C(=O)N(C)C)C(C)(C)CCC1` [compound I-1h, N-(all-trans-retinoyl)-L-cysteic acid dimethylamide], the “number of viable cells” value was 41.3 ± 0.99 × 10^3.

Same assay, conditions: compound alone 10^-8 mol/L, in B (normal saline)
For `CC1=C(/C=C/C(C)=C/C=C/C(C)=C/C(=O)N[C@@H](CS(=O)(=O)O)C(=O)N(C)C)C(C)(C)CCC1` [compound I-1h, N-(all-trans-retinoyl)-L-cysteic acid dimethylamide], the “number of viable cells” value was 46.1 ± 2.65 × 10^3.

Same assay, conditions: compound alone 10^-9 mol/L, in B (normal saline)
For `CC1=C(/C=C/C(C)=C/C=C/C(C)=C/C(=O)N[C@@H](CS(=O)(=O)O)C(=O)N(C)C)C(C)(C)CCC1` [compound I-1h, N-(all-trans-retinoyl)-L-cysteic acid dimethylamide], the “number of viable cells” value was 51.9 ± 3.46 × 10^3.

Same assay, conditions: compound alone, final concentration 10^-7 mol/L; working solutions in MEM with 5% FBS; two days
In the case of `CC1=C(/C=C/C(C)=C/C=C/C(C)=C/C(=O)N[C@@H](CS(=O)(=O)O)C(=O)N(C)C)C(C)(C)CCC1` [compound I-1h, N-(all-trans-retinoyl)-L-cysteic acid dimethylamide], the “number of viable cells” value is reported as 30.3 ± 1.55 × 10^3. With `COC(=O)[C@H](CCS(=O)(=O)O)NC(=O)/C=C(C)/C=C/C=C(C)/C=C/C1=C(C)CCCC1(C)C` [compound I-3a, N-(all-trans-retinoyl)-L-homocysteic acid methyl ester] the “number of viable cells” value was 28.8 ± 1.15 × 10^3.

Same assay, conditions: compound alone, final concentration 10^-8 mol/L; working solutions in MEM with 5% FBS; two days
For `CC1=C(/C=C/C(C)=C/C=C/C(C)=C/C(=O)N[C@@H](CS(=O)(=O)O)C(=O)N(C)C)C(C)(C)CCC1` [compound I-1h, N-(all-trans-retinoyl)-L-cysteic acid dimethylamide], the “number of viable cells” value was 34.1 ± 1.89 × 10^3. For `COC(=O)[C@H](CCS(=O)(=O)O)NC(=O)/C=C(C)/C=C/C=C(C)/C=C/C1=C(C)CCCC1(C)C` [compound I-3a, N-(all-trans-retinoyl)-L-homocysteic acid methyl ester], the “number of viable cells” value was 34.9 ± 1.64 × 10^3.

Same assay, conditions: compound alone, final concentration 10^-9 mol/L; working solutions in MEM with 5% FBS; two days
For `CC1=C(/C=C/C(C)=C/C=C/C(C)=C/C(=O)N[C@@H](CS(=O)(=O)O)C(=O)N(C)C)C(C)(C)CCC1` [compound I-1h, N-(all-trans-retinoyl)-L-cysteic acid dimethylamide], the “number of viable cells” value was 38.4 ± 2.11 × 10^3.

Same assay, conditions: sodium salt, range 10^-9 to 10^-7 M
For `CC1=C(/C=C/C(C)=C/C=C/C(C)=C/C(=O)N[C@@H](CS(=O)(=O)O)C(=O)N(C)C)C(C)(C)CCC1` [compound I-1h, N-(all-trans-retinoyl)-L-cysteic acid dimethylamide], the “cell growth inhibition in (A) compared to compound in B” value was roughly 21%.

System: not given
Test: not given
Details: rat, in vivo, ip
With `CC1=C(/C=C/C(C)=C/C=C/C(C)=C/C(=O)N[C@@H](CS(=O)(=O)O)C(=O)N(C)C)C(C)(C)CCC1` [compound I-1h, N-(all-trans-retinoyl)-L-cysteic acid dimethylamide] the minimal lethal dose was “above 100 mg/kg body weight”. For `COC(=O)[C@H](CCS(=O)(=O)O)NC(=O)/C=C(C)/C=C/C=C(C)/C=C/C1=C(C)CCCC1(C)C` [compound I-3a, N-(all-trans-retinoyl)-L-homocysteic acid methyl ester], the minimal lethal dose was “above 100 mg/kg body weight”.

Same assay, conditions: rat, in vivo, ip, 100 mg/kg
With `CC1=C(/C=C/C(C)=C/C=C/C(C)=C/C(=O)N[C@@H](CS(=O)(=O)O)C(=O)N(C)C)C(C)(C)CCC1` [compound I-1h, N-(all-trans-retinoyl)-L-cysteic acid dimethylamide] the mortality was “did not produce mortality”. In the case of `COC(=O)[C@H](CCS(=O)(=O)O)NC(=O)/C=C(C)/C=C/C=C(C)/C=C/C1=C(C)CCCC1(C)C` [compound I-3a, N-(all-trans-retinoyl)-L-homocysteic acid methyl ester], the mortality is reported as “did not produce mortality”.
